Measured values as given in patent US10730858B2, “Lactam, cyclic urea and carbamate, and triazolone derivatives as potent and selective rock inhibitors” (BRISTOL-MYERS SQUIBB COMPANY, priority 2016, dated 2020).

Molecular target: ROCK2 (Homo sapiens, UniProt O75116)
Test: ROCK2 assay (Caliper LABCHIP peptide phosphorylation, kinase inhibition)
Format: biochemical
Settings: 5 μM ATP, 1.5 μM peptide substrate
Protocol: The effectiveness of compounds of the present invention as ROCK inhibitors can be determined in a 30 μL assay containing 20 mM HEPES, pH 7.5, 20 mM MgCl2, 0.015% Brij-35, 4 mM DTT, 5 μM ATP and 1.5 μM peptide substrate (FITC-AHA-AKRRRLSSLRA-OH) (SEQ ID NO. 1). Compounds were dissolved in DMSO so that the final concentration of DMSO was <2%, and the reaction was initiated with Rho kinase variants. After incubation, the reaction was terminated by the addition of EDTA and the phosphorylated and non-phosphorylated peptides separated using a LABCHIP® 3000 Reader (Caliper Life Sciences). […] Compounds were tested in dose-response format, and the inhibition of kinase activity was calculated at each concentration of compound. The inhibition data were fit using a curve-fitting program to determine the IC50; i.e., the concentration of compound required to inhibit 50% of kinase activity.
Representative Examples were tested in the ROCK2 assay described above and found having ROCK2 inhibitory activity. The ranges of the ROCK2 IC50 values are as follows: ROCK2 IC50: ++++ (<10 nM) +++ (10-100 nM) ++ (100-500 nM) + (500-2000 nM)

Sequence of ROCK2 (O75116 whole entry, species assumed): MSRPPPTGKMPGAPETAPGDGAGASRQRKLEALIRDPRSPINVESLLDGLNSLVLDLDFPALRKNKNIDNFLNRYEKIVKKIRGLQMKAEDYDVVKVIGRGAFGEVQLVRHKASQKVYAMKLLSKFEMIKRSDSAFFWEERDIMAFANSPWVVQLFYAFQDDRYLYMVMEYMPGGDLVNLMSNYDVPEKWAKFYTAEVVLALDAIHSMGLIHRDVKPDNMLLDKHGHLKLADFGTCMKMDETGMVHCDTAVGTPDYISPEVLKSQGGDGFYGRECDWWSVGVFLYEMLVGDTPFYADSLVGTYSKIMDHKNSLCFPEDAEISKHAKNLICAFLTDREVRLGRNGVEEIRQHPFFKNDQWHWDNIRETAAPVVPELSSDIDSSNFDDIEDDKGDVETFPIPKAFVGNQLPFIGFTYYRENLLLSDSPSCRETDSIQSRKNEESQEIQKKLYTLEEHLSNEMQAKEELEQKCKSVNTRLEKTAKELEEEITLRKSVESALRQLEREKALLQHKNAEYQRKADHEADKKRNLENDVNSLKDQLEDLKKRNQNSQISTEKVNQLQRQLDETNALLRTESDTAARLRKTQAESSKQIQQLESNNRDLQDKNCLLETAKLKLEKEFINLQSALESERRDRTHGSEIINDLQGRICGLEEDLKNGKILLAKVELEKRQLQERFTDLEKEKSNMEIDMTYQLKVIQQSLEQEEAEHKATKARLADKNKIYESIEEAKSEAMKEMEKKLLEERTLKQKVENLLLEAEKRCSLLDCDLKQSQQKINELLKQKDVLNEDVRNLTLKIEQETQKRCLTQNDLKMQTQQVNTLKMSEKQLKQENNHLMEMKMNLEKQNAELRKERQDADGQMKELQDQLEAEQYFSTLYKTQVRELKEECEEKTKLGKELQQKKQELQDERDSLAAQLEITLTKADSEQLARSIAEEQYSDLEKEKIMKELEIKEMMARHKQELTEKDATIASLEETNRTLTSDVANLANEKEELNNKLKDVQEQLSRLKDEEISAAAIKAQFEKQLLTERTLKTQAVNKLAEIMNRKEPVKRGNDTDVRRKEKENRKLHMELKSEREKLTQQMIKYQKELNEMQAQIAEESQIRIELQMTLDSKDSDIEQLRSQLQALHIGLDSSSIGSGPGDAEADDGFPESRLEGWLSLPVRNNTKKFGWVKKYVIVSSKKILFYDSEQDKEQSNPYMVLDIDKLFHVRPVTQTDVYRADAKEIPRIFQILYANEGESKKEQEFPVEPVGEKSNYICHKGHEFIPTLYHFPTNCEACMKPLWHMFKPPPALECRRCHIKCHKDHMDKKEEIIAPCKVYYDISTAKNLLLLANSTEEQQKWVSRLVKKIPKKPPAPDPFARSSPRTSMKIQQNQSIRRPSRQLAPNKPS

| IC50 [nM] | Compound |
| --- | --- |
| 500 to 2000 | CC(C)(C)OC(=O)NCC1CN(c2ccc(-c3n[nH]c(=O)c4ccccc34)cc2)C(=O)O1 (stereo not drawn) [Example 16, tert-butyl N-({2-oxo-3-[4-(4-oxo-3,4-dihydrophthalazin-1-yl)phenyl]-1,3-oxazolidin-5-yl}methyl)carbamate] |
| 100 to 500 | O=C(NCC1CN(c2ccc(-c3n[nH]c(=O)c4ccccc34)cc2)C(=O)O1)c1ccccc1 (stereo not drawn) [Example 18, N-({2-oxo-3-[4-(4-oxo-3,4-dihydrophthalazin-1-yl)phenyl]-1,3-oxazolidin-5-yl}methyl)benzamide] |
| 500 to 2000 | O=C1OC(c2ccc(F)cc2)CN1c1ccc(-c2n[nH]c(=O)c3ccccc23)cc1 (stereo not drawn) [Example 19, 4-{4-[5-(4-fluorophenyl)-2-oxo-1,3-oxazolidin-3-yl]phenyl}-1,2-dihydrophthalazin-1-one] |
| 100 to 500 | CS(=O)(=O)c1ccc(CC2CN(c3ccc(-c4n[nH]c(=O)c5ccccc45)cc3)C(=O)O2)cc1 (stereo not drawn) [Example 20, 4-(4-{5-[(4-methanesulfonylphenyl)methyl]-2-oxo-1,3-oxazolidin-3-yl}phenyl)-1,2-dihydrophthalazin-1-one] |
| 500 to 2000 | O=C1OC(C(O)(c2ccccc2)C(F)(F)F)CN1c1ccc(-c2n[nH]c(=O)c3ccccc23)cc1 (stereo not drawn) [Example 22, 4-{4-[2-oxo-5-(2,2,2-trifluoro-1-hydroxy-1-phenylethyl)-1,3-oxazolidin-3-yl]phenyl}-1,2-dihydrophthalazin-1-one] |
| 500 to 2000 | C[C@@H]1OC(=O)N(c2ccc(-c3n[nH]c(=O)c4ccccc34)cc2)[C@@H]1c1ccccc1 [Example 23, 4-{4-[(4R,5S)-5-methyl-2-oxo-4-phenyl-1,3-oxazolidin-3-yl]phenyl}-1,2-dihydrophthalazin-1-one] |
| 500 to 2000 | O=C1C(N2CCOCC2)CCN1c1ccc(-c2n[nH]c(=O)c3ccccc23)cc1 (stereo not drawn) [Example 24, 4-{4-[3-(morpholin-4-yl)-2-oxopyrrolidin-1-yl]phenyl}-1,2-dihydrophthalazin-1-one] |
| 500 to 2000 | O=C1C(NC2CCCC2)CCN1c1ccc(-c2n[nH]c(=O)c3ccccc23)cc1 (stereo not drawn) [Example 28, 4-{4-[3-(cyclopentylamino)-2-oxopyrrolidin-1-yl]phenyl}-1,2-dihydrophthalazin-1-one] |
| 500 to 2000 | O=C1C(NC2Cc3ccccc3C2)CCN1c1ccc(-c2n[nH]c(=O)c3ccccc23)cc1 (stereo not drawn) [Example 29, 4-(4-{3-[(2,3-dihydro-1H-inden-2-yl)amino]-2-oxopyrrolidin-1-yl}phenyl)-1,2-dihydrophthalazin-1-one] |
| 10 to 100 | O=C1C(Nc2ccc3c(c2)OCO3)CCN1c1ccc(-c2n[nH]c(=O)c3ccccc23)cc1 (stereo not drawn) [Example 33, 4-(4-{3-[(2H-1,3-benzodioxol-5-yl)amino]-2-oxopyrrolidin-1-yl}phenyl)-1,2-dihydrophthalazin-1-one] |
| 10 to 100 | Cn1nc(C2CC2)cc1NC1CCN(c2ccc(-c3n[nH]c(=O)c4ccccc34)cc2)C1=O (stereo not drawn) [Example 35, 4-(4-{3-[(3-cyclopropyl-1-methyl-1H-pyrazol-5-yl)amino]-2-oxopyrrolidin-1-yl}phenyl)-1,2-dihydrophthalazin-1-one] |
| 10 to 100 | COc1ccc(F)c(NC2CCN(c3ccc(-c4n[nH]c(=O)c5ccccc45)cc3)C2=O)c1 (stereo not drawn) [Example 37, 4-(4-{3-[(2-fluoro-5-methoxyphenyl)amino]-2-oxopyrrolidin-1-yl}phenyl)-1,2-dihydrophthalazin-1-one] |
| 10 to 100 | COc1cc(C)cc(NC2CCN(c3ccc(-c4n[nH]c(=O)c5ccccc45)cc3)C2=O)c1 (stereo not drawn) [Example 38, 4-(4-{3-[(3-methoxy-5-methylphenyl)amino]-2-oxopyrrolidin-1-yl}phenyl)-1,2-dihydrophthalazin-1-one] |
| 10 to 100 | O=C1C(Nc2cnn(-c3ccccc3)c2)CCN1c1ccc(-c2n[nH]c(=O)c3ccccc23)cc1 (stereo not drawn) [Example 39, 4-(4-{2-oxo-3-[(1-phenyl-1H-pyrazol-4-yl)amino]pyrrolidin-1-yl}phenyl)-1,2-dihydrophthalazin-1-one] |
| 10 to 100 | COc1cc(NC2CCN(c3ccc(-c4n[nH]c(=O)c5ccccc45)cc3)C2=O)ccc1F (stereo not drawn) [Example 42, 4-(4-{3-[(4-fluoro-3-methoxyphenyl)amino]-2-oxopyrrolidin-1-yl}phenyl)-1,2-dihydrophthalazin-1-one] |
| 500 to 2000 | COc1cccc([C@@H](C)NC2CCN(c3ccc(-c4n[nH]c(=O)c5ccccc45)cc3)C2=O)c1 (stereo partly drawn) [Example 44, 4-[4-(3-{[(1R)-1-(3-methoxyphenyl)ethyl]amino}-2-oxopyrrolidin-1-yl)phenyl]-1,2-dihydrophthalazin-1-one] |
| 100 to 500 | COc1cccc(Cn2cnn(-c3ccc(-c4n[nH]c(=O)c5ccccc45)cc3)c2=O)c1 [Example 46, 4-(4-{4-[(3-methoxyphenyl)methyl]-5-oxo-4,5-dihydro-1H-1,2,4-triazol-1-yl}phenyl)-1,2-dihydrophthalazin-1-one] |
| 500 to 2000 | O=c1n(Cc2ccccc2)cnn1-c1ccc(-c2n[nH]c(=O)n3cccc23)cc1 [Example 47, 4-benzyl-1-(4-{4-oxo-3H,4H-pyrrolo[1,2-d][1,2,4]triazin-1-yl}phenyl)-4,5-dihydro-1H-1,2,4-triazol-5-one] |
| 10 to 100 | COc1cc(NC2CCN(c3ccc(-c4n[nH]c(=O)c5ccccc45)cc3)C2=O)ccc1N1CCN(C)CC1 (stereo not drawn) [Example 48, 4-[4-(3-{[3-methoxy-4-(4-methylpiperazin-1-yl)phenyl]amino}-2-oxopyrrolidin-1-yl)phenyl]-1,2-dihydrophthalazin-1-one] |

Continued, compound first:

| Compound | IC50 [nM] |
| --- | --- |
| CCCC1CN(c2ccc(-c3n[nH]c(=O)c4ccccc34)cc2)C(=O)O1 (stereo not drawn) [Example 17, 4-[4-(2-oxo-5-propyl-1,3-oxazolidin-3-yl)phenyl]-1,2-dihydrophthalazin-1-one] | 100 to 500 |
| O=C1OC2CCCCC2N1c1ccc(-c2n[nH]c(=O)c3ccccc23)cc1 (stereo not drawn) [Example 21, 4-[4-(2-oxo-octahydro-1,3-benzoxazol-3-yl)phenyl]-1,2-dihydrophthalazin-1-one] | 500 to 2000 |
| O=C1C(NCc2ccccc2)CCN1c1ccc(-c2n[nH]c(=O)c3ccccc23)cc1 (stereo not drawn) [Example 25, 4-{4-[3-(benzylamino)-2-oxopyrrolidin-1-yl]phenyl}-1,2-dihydrophthalazin-1-one] | 500 to 2000 |
| COc1cccc(NC2CCN(c3ccc(-c4n[nH]c(=O)c5ccccc45)cc3)C2=O)c1 (stereo not drawn) [Example 26, 4-(4-{3-[(3-methoxyphenyl)amino]-2-oxopyrrolidin-1-yl}phenyl)-1,2-dihydrophthalazin-1-one] | 10 to 100 |
| O=C1C(Nc2ccccc2)CCN1c1ccc(-c2n[nH]c(=O)c3ccccc23)cc1 (stereo not drawn) [Example 27, 4-{4-[2-oxo-3-(phenylamino)pyrrolidin-1-yl]phenyl}-1,2-dihydrophthalazin-1-one] | 10 to 100 |
| CCc1ccccc1NC1CCN(c2ccc(-c3n[nH]c(=O)c4ccccc34)cc2)C1=O (stereo not drawn) [Example 31, 4-(4-{3-[(2-ethylphenyl)amino]-2-oxopyrrolidin-1-yl}phenyl)-1,2-dihydrophthalazin-1-one] | 10 to 100 |
| COc1cc(F)cc(NC2CCN(c3ccc(-c4n[nH]c(=O)c5ccccc45)cc3)C2=O)c1 (stereo not drawn) [Example 32, 4-(4-{3-[(3-fluoro-5-methoxyphenyl)amino]-2-oxopyrrolidin-1-yl}phenyl)-1,2-dihydrophthalazin-1-one] | 10 to 100 |
| O=C1C(Nc2ccc3c(c2)OCCCO3)CCN1c1ccc(-c2n[nH]c(=O)c3ccccc23)cc1 (stereo not drawn) [Example 34, 4-(4-{3-[(3,4-dihydro-2H-1,5-benzodioxepin-7-yl)amino]-2-oxopyrrolidin-1-yl}phenyl)-1,2-dihydrophthalazin-1-one] | 10 to 100 |
| Cc1[nH]nc(C2CC2)c1NC1CCN(c2ccc(-c3n[nH]c(=O)c4ccccc34)cc2)C1=O (stereo not drawn) [Example 36, 4-(4-{3-[(3-cyclopropyl-5-methyl-1H-pyrazol-4-yl)amino]-2-oxopyrrolidin-1-yl}phenyl)-1,2-dihydrophthalazin-1-one] | 10 to 100 |
| COc1c(F)ccc(NC2CCN(c3ccc(-c4n[nH]c(=O)c5ccccc45)cc3)C2=O)c1F (stereo not drawn) [Example 40, 4-(4-{3-[(2,4-difluoro-3-methoxyphenyl)amino]-2-oxopyrrolidin-1-yl}phenyl)-1,2-dihydrophthalazin-1-one] | 10 to 100 |
| O=c1[nH]nc(-c2ccc(-n3ncn(Cc4ccccc4)c3=O)cc2)c2ccccc12 [Example 41, 4-[4-(4-benzyl-5-oxo-4,5-dihydro-1H-1,2,4-triazol-1-yl)phenyl]-1,2-dihydrophthalazin-1-one] | 100 to 500 |
| CCOc1cccc(NC2CCN(c3ccc(-c4n[nH]c(=O)c5ccccc45)cc3)C2=O)c1 (stereo not drawn) [Example 43, 4-(4-{3-[(3-ethoxyphenyl)amino]-2-oxopyrrolidin-1-yl}phenyl)-1,2-dihydrophthalazin-1-one] | 10 to 100 |
| O=C1C(NCCc2ccccc2)CCN1c1ccc(-c2n[nH]c(=O)c3ccccc23)cc1 (stereo not drawn) [Example 45, 4-(4-{2-oxo-3-[(2-phenylethyl)amino]pyrrolidin-1-yl}phenyl)-1,2-dihydrophthalazin-1-one] | 500 to 2000 |
| COc1cc(NC2CCN(c3ccc(-c4n[nH]c(=O)c5ccccc45)cc3)C2=O)ccc1N1CCOCC1 (stereo not drawn) [Example 49, 4-[4-(3-{[3-methoxy-4-(morpholin-4-yl)phenyl]amino}-2-oxopyrrolidin-1-yl)phenyl]-1,2-dihydrophthalazin-1-one] | 10 to 100 |
